Some results are limits rather than exact numbers.

We go through 56 molecules from patent US20130131075A1, “NEW COMPOUNDS” (Boehringer Ingelheim International GmbH, priority 2009, published 2013).

The target in the assay is T1, cynomolgus BK1-receptor (Macaca fascicularis, UniProt Q3BCU0).
T1 construct: expressed in transfected cells; host or cells: CHO cells (homogenate)
T1 sequence (Q3BCU0 1-352): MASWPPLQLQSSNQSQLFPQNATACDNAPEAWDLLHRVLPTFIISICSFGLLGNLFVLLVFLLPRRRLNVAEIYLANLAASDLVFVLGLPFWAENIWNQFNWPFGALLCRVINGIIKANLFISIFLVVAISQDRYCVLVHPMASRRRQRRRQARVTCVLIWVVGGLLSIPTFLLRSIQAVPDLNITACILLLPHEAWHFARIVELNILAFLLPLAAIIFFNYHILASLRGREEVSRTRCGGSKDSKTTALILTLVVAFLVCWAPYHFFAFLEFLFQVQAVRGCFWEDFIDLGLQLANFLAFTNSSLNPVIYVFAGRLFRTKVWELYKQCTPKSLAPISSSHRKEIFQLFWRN
Kind of assay: cynoBK1-receptor binding assay. The note with it: CHO cells expressing cynomolgus BK1-receptor, radioligand kallidine (DesArg10,Leu9). How it is done: Description of the Method of Binding the cynoBK1-Receptor
CHO cells that express the cynomolgus BK1-receptor are cultivated in “HAM'S F-12 Medium”. The medium is removed from confluent cultures, the cells are washed with PBS buffer, scraped off or detached using Versene and isolated by centrifuging. Then the cells are homogenised in suspension, the homogenate is centrifuged and resuspended. After the protein content has been determined 200 μl of the homogenate (50 to 250 μg protein/assay) are incubated for 60-180 minutes at ambient temperature with 0.5 to 5.0 nM kallidine (DesArg10,Leu9), [3,4-Prolyl-3,43H(N)] and increasing concentrations of the test substance in a total volume of 250 μl. The incubation is stopped by rapid filtration through GF/B glass fibre filters that have been pre-treated with polyethyleneimine (0.3%). The radioactivity bound to the protein is measured with a TopCount NXT. The radioactivity bound in the presence of 1.0 μM kallidine (DesArg10) is defined as non-specific binding. The concentration binding curve may be analysed using computer-aided non-linear curve fitting to determine the corresponding Ki value for the test substance.
Test results of the cynoBK1-receptor binding assay: […]

The molecule `Nc1cncc(C(=O)N[C@@]2(C(=O)NCc3ccc(Nc4ccc(Cl)cc4C(F)(F)F)cn3)CCOC2)c1` [(226)] returned an inhibition constant Ki of 157 nM.

As to `O=C(NC1(C(=O)NCc2ccc(Nc3ccc(Cl)cc3C(F)(F)F)cn2)CC1)c1cncc(F)c1` [(351)], the Ki turned out to be 24 nM. The molecule `Cc1cc(Nc2ccc(F)cc2C(F)(F)F)cnc1CNC(=O)C1(NC(=O)c2cncnc2)CC1` [(306)] displayed a Ki of 2 nM.

For `O=C(NC1(C(=O)NCc2ccc(Nc3ccc(F)cc3C(F)(F)F)cc2)CC1)c1cncs1` [(29)], the Ki turned out to be 6.2 nM. For the same molecule, the inhibition at 10 µM (at 10 μgmol/L) was determined as 113%.

`CC(C#N)C(=O)NC1(C(=O)NCc2ccc(Nc3ccc(Cl)cc3C(F)(F)F)cn2)CC1` (stereo not shown) [(368)] returned an inhibition constant Ki of 42 nM. Turning to `CCN(c1ccccc1)c1ccc(CNC(=O)C2(NC(=O)c3cncnc3)CC2)cc1` [(111)], the inhibition at 10 µM (at 10 μgmol/L) amounted to 20%. Molecule `N#Cc1cccc(F)c1Nc1ccc(CNC(=O)C2(NC(=O)c3cncnc3)CC2)cc1` [(116)] yielded a Ki of over 500 nM. Besides, the inhibition at 10 µM (at 10 μgmol/L) is 83%.

`O=C1CCC(C(=O)N[C@@]2(C(=O)NCc3ccc(Nc4ccccc4C(F)(F)F)cc3)CCOC2)C1` (stereo partly shown) [(78)]: the inhibition at 10 µM (at 10 μgmol/L) was determined as 73%.

Molecule `Cc1cc(C(=O)NC2(C(=O)NCc3ccc(Nc4ccc(F)cc4C(F)(F)F)cn3)CC2)cnc1N` [(391)] displayed an inhibition constant Ki of 9.3 nM. The same measure, in the same setting: next, `N#Cc1ccccc1Nc1ccc(CNC(=O)C2(NC(=O)c3cncnc3)CC2)c(F)c1` [(296)]: 28 nM. Turning to `COc1ccc(N(C)c2ccc(CNC(=O)C3(NC(=O)c4cncnc4)CC3)cc2)cc1` [(112)], the inhibition at 10 µM (at 10 μgmol/L) was found to be 45%. `O=C(CC(F)(F)F)NC1(C(=O)NCc2ccc(Nc3ccc(F)cc3C(F)(F)F)cc2)CC1` [(30)] gave a Ki of 13 nM. Moreover, where the note is “at 10 μgmol/L”, the inhibition at 10 µM was 111%. With `Nc1cc(C(=O)NC2(C(=O)NCc3ccc(Nc4ccc(F)cc4C(F)(F)F)cn3)CC2)on1` [(150)], the affinity, expressed as Ki, was 37 nM. Also, the inhibition at 10 µM (at 10 μgmol/L) was found to be 105%.

In the case of `O=C(N[C@@]1(C(=O)NCc2ccc(Nc3ccccc3C(F)(F)F)cc2)CCOC1)c1cnco1` [(85)], under “at 10 μgmol/L”, the inhibition at 10 µM was 93%. `COc1ncc(C(=O)NC2(C(=O)NCc3ccc(Nc4ccc(F)cc4C#N)cc3)CC2)cn1` [(182)]: the Ki came out at 20 nM. Besides, the inhibition at 10 µM (at 10 μgmol/L) was determined as 99%. Consider `Cn1cnc(C(=O)NC2(C(=O)NCc3ccc(Nc4ccccc4C(F)(F)F)cc3)CC2)c1` [(17)], for which the inhibition at 10 µM (at 10 μgmol/L) was found to be 75%. In turn, `O=C(NC1(C(=O)NCc2ccc(Nc3ccc(Cl)cc3C(F)(F)F)cn2)CC1)c1cccc(O)n1` [(211)] registered a Ki of 25 nM. Still for that read-out and setting: next, `O=C(NC1(C(=O)NCc2ccc(Nc3c(F)cc(Br)cc3Cl)cn2)CC1)c1cncnc1` [(325)]: 374 nM. Consider `O=C(NC1(C(=O)NCc2ccc(Nc3ccc(F)cc3C(F)(F)F)cn2)CC1)c1cnc(C(F)(F)F)nc1` [(246)], for which affinity was put at a Ki of 21 nM.

As to `O=C(N[C@@]1(C(=O)NCc2ccc(Nc3ccccc3C(F)(F)F)cc2)CCOC1)c1cccnn1` [(74)], the inhibition at 10 µM (at 10 μgmol/L) came to 56%. Same read-out and setting: for `O=C(N[C@@]1(C(=O)NCc2ccc(Nc3ccccc3C(F)(F)F)cc2)CCOC1)c1cnccn1` [(96)] the value was 78%.

Molecule `O=C(N[C@@]1(C(=O)NCc2ccc(Nc3ccc(Cl)cc3C(F)(F)F)cc2)CCOC1)c1cncnc1` [(332)] registered an inhibition constant (Ki) of 41 nM. Take `Cc1ncc(C(=O)NC2(C(=O)NCc3ccc(Nc4ccc(Cl)cc4C(F)(F)F)cn3)CC2)cn1` [(147)]: the inhibition constant (Ki) was 4.4 nM. For the same molecule, the inhibition at 10 µM (at 10 μgmol/L) stood at 107%. `Cc1cncc(C(=O)NC2(C(=O)NCc3ccc(Nc4ccc(F)cc4C(F)(F)F)cn3)CC2)c1` [(302)]: the affinity corresponds to a Ki of 42 nM. As to `O=C(N[C@@]1(C(=O)NCc2ccc(Nc3ccccc3C(F)(F)F)cc2)CCOC1)c1cncnc1` [(127)], the inhibition at 10 µM (at 10 μgmol/L) worked out at 108%. On to `O=C(N[C@@]1(C(=O)NCc2ccc(Nc3ccccc3C(F)(F)F)cc2)CCOC1)c1cncnc1` [(155)], for which the “% inhibition at 10 μgmol/L” value (at 10 μgmol/L) was found to be 101%. `CCc1ncc(C(=O)NC2(C(=O)NCc3ccc(Nc4ccc(Cl)cc4C(F)(F)F)cn3)CC2)cn1` [(371)] showed a Ki of 6.1 nM. `Nc1ccc(C(=O)NC2(C(=O)NCc3ccc(Nc4ccc(Br)cc4C(F)(F)F)cn3)CC2)cn1` [(173)]: the inhibitory constant (Ki) is 2.7 nM. Besides, under “at 10 μgmol/L”, the inhibition at 10 µM is 105%. Consider `Cc1ncc(C(=O)N[C@@]2(C(=O)NCc3ccc(Nc4ccccc4C(F)(F)F)cc3)CCOC2)c(C)n1` [(80)], for which the inhibition at 10 µM (at 10 μgmol/L) was 88%. As to `COc1cncc(C(=O)N[C@@]2(C(=O)NCc3ccc(Nc4ccc(Cl)cc4C(F)(F)F)cc3)CCOC2)c1` [(337)], affinity was put at a Ki of 312 nM. For `O=C(N[C@@]1(C(=O)NCc2ccc(Nc3ccccc3C(F)(F)F)cc2)CCOC1)c1cncc(O)c1` [(87)], the inhibition at 10 µM (at 10 μgmol/L) worked out at 112%.

Consider `O=C(NC1(C(=O)NCc2ccc(Nc3ccccc3C(F)(F)F)cc2)CC1)c1ccccn1` [(21)], for which, under “at 10 μgmol/L”, the inhibition at 10 µM amounted to 68%. For the molecule `CC(NC(=O)C1(NC(=O)c2cncnc2)CC1)c1ccc(Nc2ccc(OC(F)F)cc2)cc1` (stereo not shown) [(25)], the inhibition at 10 µM (at 10 μgmol/L) was determined as 86%. Same read-out and setting: next, `CN(C)CC(=O)NC1(C(=O)NCc2ccc(Nc3ccccc3C(F)(F)F)cc2)CC1` [(12)]: 78%. The molecule `CCCNc1ncc(C(=O)NC2(C(=O)NCc3ccc(Nc4ccc(Cl)cc4C(F)(F)F)cn3)CC2)cn1` [(380)] displayed a Ki of 6.5 nM. Regarding `Nc1nc2cc(C(=O)NC3(C(=O)NCc4ccc(Nc5ccc(Cl)cc5C(F)(F)F)cn4)CC3)ccc2[nH]1` [(265)], the affinity corresponds to a Ki of 75 nM.

On to `CC(NC(=O)[C@]1(NC(=O)c2cncnc2)CCOC1)c1ccc(Nc2ccc(F)cc2C(F)(F)F)cn1` (stereo partly shown) [(47)], for which the affinity corresponds to a Ki of 39 nM. Besides, the inhibition at 10 µM (at 10 μgmol/L) came out at 94%. Consider `O=C(N[C@@]1(C(=O)NCc2ccc(Nc3ccccc3C(F)(F)F)cc2)CCOC1)c1cccc(O)c1` [(97)], for which affinity was put at a Ki of 132 nM. Turning to `O=C(NC1(C(=O)NCc2ccc(Nc3ccc(C(F)(F)F)cc3C(F)(F)F)cn2)CC1)c1cncnc1` [(52)], the Ki stood at 312 nM. Further, the inhibition at 10 µM (at 10 μgmol/L) was 63%. Take `O=C1CCC(NC(=O)c2cncnc2)(C(=O)NCc2ccc(Nc3ccccc3C(F)(F)F)cn2)C1` (stereo not shown) [(193)]: under “at 10 μgmol/L”, the inhibition at 10 µM stood at 101%. Molecule `O=C(NC1(C(=O)NCc2ccc(Nc3ccc(Cl)cc3C(F)(F)F)cn2)CC1)c1cc(O)nc(O)n1` [(208)] displayed a Ki of 6.8 nM.

With `Cc1ccc(Nc2ccc(CNC(=O)C3(NC(=O)c4cncnc4)CC3)nc2)c(C(F)(F)F)c1` [(51)], the inhibition constant (Ki) is 38 nM. For the same molecule, the inhibition at 10 µM (at 10 μgmol/L) stood at 112%. In turn, `O=C(NC1(C(=O)NCc2ccc(Nc3ccc(Cl)cc3C(F)(F)F)cn2)CC1)c1cn[nH]c1` [(372)] displayed a Ki of 24 nM. The molecule `CNc1ncc(C(=O)NC2(C(=O)NCc3ccc(Nc4ccc(F)cc4C#N)cc3)CC2)cn1` [(183)] showed an inhibitory constant (Ki) of 21 nM. Also, where the note is “at 10 μgmol/L”, the inhibition at 10 µM was 100%. As for `O=C(NC1(C(=O)NCc2ccc(Nc3ccccc3C(F)(F)F)cn2)CCC(O)C1)c1cncnc1` (stereo not shown) [(192)], the inhibition at 10 µM (at 10 μgmol/L) was 95%. `O=C(NC1(C(=O)NCc2ccc(Nc3ccc(F)cc3C(F)(F)F)cc2)CC1)c1cncnc1` [(33)] yielded a Ki of 1.9 nM. Further, the inhibition at 10 µM (at 10 μgmol/L) worked out at 110%. Molecule `CCNc1ccc(C(=O)NC2(C(=O)NCc3ccc(Nc4ccc(Cl)cc4C(F)(F)F)cn3)CC2)cn1` [(329)] returned an inhibition constant Ki of 24 nM. For `COc1ccc(Nc2ccc(CNC(=O)C3(NC(=O)c4cncnc4)CC3)nc2)c(C(F)(F)F)c1` [(50)], the inhibitory constant (Ki) is 0.7 nM. Under “at 10 μgmol/L”, the inhibition at 10 µM was determined as 115%. On to `CS(=O)(=O)c1ccc(Nc2ccc(CNC(=O)C3(NC(=O)c4cncnc4)CC3)cc2)c(C(F)(F)F)c1` [(32)], for which the Ki worked out at 200 nM. For the same molecule, the inhibition at 10 µM (at 10 μgmol/L) was determined as 93%.

`Cc1cncc(C(=O)NC2(C(=O)NCc3ncc(Nc4c(F)cccc4C(F)(F)F)cc3F)CC2)c1` [(131)] came in with an inhibition constant Ki of 33 nM. For the same molecule, where the note is “at 10 μgmol/L”, the inhibition at 10 µM amounted to 105%.

`O=C(NC1(C(=O)NCc2ccc(Nc3ccc(F)cc3C(F)(F)F)cn2)CC1)c1cncc(O)c1` [(243)] came in with an inhibition constant (Ki) of 28 nM. In the case of `CN(C)CCCC(=O)NC1(C(=O)NCc2ccc(Nc3ccccc3C(F)(F)F)cc2)CC1` [(6)], where the note is “at 10 μgmol/L”, the inhibition at 10 µM turned out to be 59%. Regarding `CC(C)Oc1ccc(Nc2ccc(CNC(=O)C3(NC(=O)c4cncnc4)CC3)cc2)c(C(F)(F)F)c1` [(119)], affinity was put at a Ki of 375 nM. Further, the inhibition at 10 µM (at 10 μgmol/L) was 82%.

Turning to `N#Cc1ccccc1Nc1cnc(CNC(=O)C2(NC(=O)c3cncnc3)CC2)c(F)c1` [(295)], affinity was put at a Ki of 31 nM. The molecule `Nc1cncc(C(=O)NC2(C(=O)NCc3ccc(Nc4ccc(F)cc4C(F)(F)F)cn3)CC2)c1` [(142)] had an inhibitory constant (Ki) of 12 nM. For the same molecule, the inhibition at 10 µM (at 10 μgmol/L) is 106%. `COc1cncc(C(=O)NC2(C(=O)NCc3ccc(Nc4ccc(Cl)cc4C(F)(F)F)cn3)CC2)c1` [(313)] showed a Ki of 95 nM.

The Ki is the equilibrium dissociation constant of an inhibitor or competing ligand from its target. The low end stands for higher affinity, the high end for lower affinity. The term inhibition denotes the drop in the measured response relative to a control, in per cent. The term % inhibition denotes the change of the read-out against control, counted positive when it falls.
